Measurements: ChEMBL document CHEMBL4715829, “Heterodimeric Rifampicin-Tobramycin conjugates break intrinsic resistance of Pseudomonas aeruginosa to doxycycline and chloramphenicol in vitro and in a Galleria mellonella in vivo model” (Eur J Med Chem, 2019)
≈ marks a conversion by molar mass, not a printed value.

Key:
[1] = test system: Escherichia coli; test: Antibacterial activity against Escherichia coli ATCC 25922 assessed as reduction in bacterial growth incubated for 18 hrs by broth microdilution assay; assay type: functional
[2] = test system: Pseudomonas aeruginosa; test: Antibacterial activity against Pseudomonas aeruginosa ATCC 27853 assessed as reduction in bacterial growth incubated for 18 hrs by broth microdilution assay; assay type: functional
[3] = test system: Staphylococcus epidermidis; test: Antibacterial activity against methicillin-resistance Staphylococcus epidermidis CAN-ICU 61589 (CAZ>32) assessed as reduction in bacterial growth incubated for 18 hrs by broth microdilution assay; assay type: functional
[4] = test system: Escherichia coli; test: Antibacterial activity against gentamicin-resistant Escherichia coli CAN-ICU 61714 assessed as reduction in bacterial growth incubated for 18 hrs by broth microdilution assay; assay type: functional
[5] = test system: Escherichia coli; test: Antibacterial activity against Escherichia coli CAN-ICU 63074 (AMK 32) assessed as reduction in bacterial growth incubated for 18 hrs by broth microdilution assay; assay type: functional
[6] = test system: Pseudomonas aeruginosa; test: Antibacterial activity against gentamicin, tobramycin-resistant Pseudomonas aeruginosa CANWARD 96846 assessed as reduction in bacterial growth incubated for 18 hrs by broth microdilution assay; assay type: functional
[7] = test system: Klebsiella pneumoniae; test: Antibacterial activity against Klebsiella pneumoniae ATCC 13883 assessed as reduction in bacterial growth incubated for 18 hrs by broth microdilution assay; assay type: functional
[8] = test system: Pseudomonas aeruginosa; test: Antibacterial activity against wild type Pseudomonas aeruginosa PAO1 assessed as reduction in bacterial growth incubated for 18 hrs by broth microdilution assay; assay type: functional
[9] = test system: Pseudomonas aeruginosa; test: Antibacterial activity against Pseudomonas aeruginosa 750 harboring efflux mutant assessed as reduction in bacterial growth incubated for 18 hrs by broth microdilution assay; assay type: functional
[10] = test system: Pseudomonas aeruginosa; test: Antibacterial activity against Pseudomonas aeruginosa PAO1 assessed as reduction in bacterial growth by measuring rifampicin MIC at <=[…] uM in presence of rifampicin incubated for 18 hrs by broth microdilution assay based checkerboard assay (reference value: […] microg/ml); assay type: functional; settings: dose microM <=10
[11] = test system: Pseudomonas aeruginosa; test: Antibacterial activity against Pseudomonas aeruginosa PAO1 assessed as reduction in bacterial growth by measuring minocycline MIC at <=10 uM in presence of minocycline incubated for 18 hrs by broth microdilution assay based checkerboard assay (reference value: 8 microg/ml); assay type: functional; settings: dose microM <=10
[12] = test system: Pseudomonas aeruginosa; test: Antibacterial activity against Pseudomonas aeruginosa PAO1 assessed as reduction in bacterial growth by measuring meropenem MIC at <=10 uM in presence of meropenem incubated for 18 hrs by broth microdilution assay based checkerboard assay (reference value: 1 microg/ml); assay type: functional; settings: dose microM <=10
[13] = test system: Pseudomonas aeruginosa; test: Antibacterial activity against Pseudomonas aeruginosa PAO1 assessed as reduction in bacterial growth by measuring ceftazidime MIC at <=10 uM in presence of ceftazidime incubated for 18 hrs by broth microdilution assay based checkerboard assay (reference value: 2 microg/ml); assay type: functional; settings: dose microM <=10
[14] = test system: Pseudomonas aeruginosa; test: Antibacterial activity against Pseudomonas aeruginosa PAO1 assessed as reduction in bacterial growth by measuring fosfomycin MIC at <=[…] uM in presence of fosfomycin incubated for 18 hrs by broth microdilution assay based checkerboard assay (reference value: […] microg/ml); assay type: functional; settings: dose microM <=10
[15] = test system: Pseudomonas aeruginosa; test: Antibacterial activity against Pseudomonas aeruginosa PAO1 assessed as reduction in bacterial growth by measuring nitrofurantoin MIC at <=10 uM in presence of nitrofurantoin incubated for 18 hrs by broth microdilution assay based checkerboard assay (reference value: 512 microg/ml); assay type: functional; settings: dose microM <=10
[16] = test system: Pseudomonas aeruginosa; test: Antibacterial activity against Pseudomonas aeruginosa PAO1 assessed as fractional inhibitory concentration index in presence of Cefotaxime incubated for 18 hrs by broth microdilution assay based checkerboard assay; assay type: functional
[17] = test system: Pseudomonas aeruginosa; test: Antibacterial activity against Pseudomonas aeruginosa PAO1 assessed as fractional inhibitory concentration index in presence of Doxycycline incubated for 18 hrs by broth microdilution assay based checkerboard assay; assay type: functional
[18] = test system: Pseudomonas aeruginosa; test: Antibacterial activity against Pseudomonas aeruginosa PAO1 assessed as fractional inhibitory concentration index in presence of Tigecycline incubated for 18 hrs by broth microdilution assay based checkerboard assay; assay type: functional
[19] = test system: Pseudomonas aeruginosa; test: Antibacterial activity against Pseudomonas aeruginosa PAO1 assessed as fractional inhibitory concentration index in presence of Vancomycin incubated for 18 hrs by broth microdilution assay based checkerboard assay; assay type: functional
[20] = test system: Pseudomonas aeruginosa; test: Antibacterial activity against Pseudomonas aeruginosa PAO1 assessed as fractional inhibitory concentration index in presence of Aztreonam incubated for 18 hrs by broth microdilution assay based checkerboard assay; assay type: functional
[21] = test system: Pseudomonas aeruginosa; test: Antibacterial activity against Pseudomonas aeruginosa PAO1 assessed as fractional inhibitory concentration index in presence of Ceftazidime incubated for 18 hrs by broth microdilution assay based checkerboard assay; assay type: functional
[22] = test system: Pseudomonas aeruginosa; test: Antibacterial activity against Pseudomonas aeruginosa PAO1 assessed as fractional inhibitory concentration index in presence of Fosfomycin incubated for 18 hrs by broth microdilution assay based checkerboard assay; assay type: functional
[23] = test system: Pseudomonas aeruginosa; test: Antibacterial activity against Pseudomonas aeruginosa PAO1 assessed as fractional inhibitory concentration index in presence of Nitrofurantoin incubated for 18 hrs by broth microdilution assay based checkerboard assay; assay type: functional
[24] = test system: Pseudomonas aeruginosa; test: Antibacterial activity against Pseudomonas aeruginosa PAO1 assessed as fractional inhibitory concentration index in presence of Erythromycin incubated for 18 hrs by broth microdilution assay based checkerboard assay; assay type: functional
[25] = Cytotoxicity against human HepG2 cells assessed as cell viability at <10 uM incubated for 48 hrs prestoblue assay; assay type: cell-based; settings: read-out: Activity
[26] = Cytotoxicity against human HepG2 cells assessed as cell viability at 50 uM incubated for 48 hrs by prestoblue assay; assay type: cell-based; settings: read-out: Activity
[27] = Cytotoxicity against human HEK293 cells assessed as cell viability at 50 uM incubated for 48 hrs by prestoblue assay; assay type: cell-based; settings: read-out: Activity
[28] = test system: Pseudomonas aeruginosa; test: Antibacterial activity against Pseudomonas aeruginosa 262-101856 assessed as reduction in bacterial growth incubated for 18 hrs by broth microdilution assay; assay type: functional
[29] = test system: Pseudomonas aeruginosa; test: Antibacterial activity against Pseudomonas aeruginosa 264-101354 assessed as reduction in bacterial growth incubated for 18 hrs by broth microdilution assay; assay type: functional
[30] = test system: Pseudomonas aeruginosa; test: Antibacterial activity against Pseudomonas aeruginosa 101243 assessed as reduction in bacterial growth incubated for 18 hrs by broth microdilution assay; assay type: functional
[31] = test system: Pseudomonas aeruginosa; test: Antibacterial activity against Pseudomonas aeruginosa 114228 assessed as reduction in bacterial growth incubated for 18 hrs by broth microdilution assay; assay type: functional
[32] = test system: Pseudomonas aeruginosa; test: Antibacterial activity against Pseudomonas aeruginosa 264-101354 assessed as fractional inhibitory concentration index in presence of doxycycline incubated for 18 hrs by broth microdilution assay; assay type: functional
[33] = test system: Pseudomonas aeruginosa; test: Antibacterial activity against Pseudomonas aeruginosa 101243 assessed as fractional inhibitory concentration index in presence of chloramphenicol incubated for 18 hrs by broth microdilution assay; assay type: functional
[34] = test system: Pseudomonas aeruginosa; test: Antibacterial activity against Pseudomonas aeruginosa 262-101856 assessed as fractional inhibitory concentration index in presence of doxycycline incubated for 18 hrs by broth microdilution assay; assay type: functional
[35] = test system: Pseudomonas aeruginosa; test: Antibacterial activity against Pseudomonas aeruginosa 262-101856 assessed as fractional inhibitory concentration index in presence of chloramphenicol incubated for 18 hrs by broth microdilution assay; assay type: functional
[36] = test system: Pseudomonas aeruginosa; test: Antibacterial activity against Pseudomonas aeruginosa 259-96918 assessed as fractional inhibitory concentration index in presence of doxycycline incubated for 18 hrs by broth microdilution assay; assay type: functional
[37] = test system: Pseudomonas aeruginosa; test: Antibacterial activity against Pseudomonas aeruginosa 259-96918 assessed as fractional inhibitory concentration index in presence of chloramphenicol incubated for 18 hrs by broth microdilution assay; assay type: functional
[38] = test system: Pseudomonas aeruginosa; test: Antibacterial activity against Pseudomonas aeruginosa 260-97103 assessed as fractional inhibitory concentration index in presence of chloramphenicol incubated for 18 hrs by broth microdilution assay; assay type: functional

| Structure (SMILES) | MIC [1] | MIC [2] | MIC [3] | MIC [4] | MIC [5] | MIC [6] | MIC [7] | MIC [8] | MIC [9] | MIC [28] | MIC [29] | MIC [30] | MIC [31] | other results |
| --- | --- | --- | --- | --- | --- | --- | --- | --- | --- | --- | --- | --- | --- | --- |
| CO[C@H]1/C=C/O[C@@]2(C)Oc3c(C)c(O)c4c(O)c(c(/C=N/N5CCN(Cc6cn(CCCCO[C@@H]7[C@@H](O[C@H]8O[C@H](CO)[C@@H](O)[C@H](N)[C@H]8O)[C@H](N)C[C@H](N)[C@H]7O[C@H]7O[C@H](CN)[C@@H](O)C[C@H]7N)nn6)CC5)c(O)c4c3C2=O)NC(=O)/C(C)=C\C=C\[C@H](C)[C@H](O)[C@@H](C)[C@@H](O)[C@@H](C)[C@H](OC(C)=O)[C@@H]1C.O=C(O)C(F)(F)F.O=C(O)C(F)(F)F.O=C(O)C(F)(F)F.O=C(O)C(F)(F)F.O=C(O)C(F)(F)F | > 32 µg/mL | > 32 µg/mL | 2 µg/mL | > 32 µg/mL | > 32 µg/mL | > 32 µg/mL | > 32 µg/mL | 512 µg/mL | > 256 µg/mL | > 256 µg/mL | 256 µg/mL | 256 µg/mL | > 128 µg/mL | MIC [10]: 4 µg/mL; MIC [11]: 2 µg/mL; MIC [12]: 1 µg/mL; MIC [13]: 2 µg/mL; MIC [14]: 16 µg/mL; MIC [15]: 512 µg/mL; fractional inhibitory concentration index (FICI) [16]: 1.03; fractional inhibitory concentration index (FICI) [17]: 0.09; fractional inhibitory concentration index (FICI) [18]: 0.51; fractional inhibitory concentration index (FICI) [19]: 1.03; fractional inhibitory concentration index (FICI) [20]: 1.03; fractional inhibitory concentration index (FICI) [21]: 1.03; fractional inhibitory concentration index (FICI) [22]: 1.03; fractional inhibitory concentration index (FICI) [23]: 1; fractional inhibitory concentration index (FICI) [24]: 0.53; viability at 48 h [25]: > 90%; viability at 48 h, 50 µM [26]: > 70%; viability at 48 h, 50 µM [27]: > 70% |
| NC[C@H]1O[C@H](O[C@H]2[C@H](O)[C@@H](O[C@H]3O[C@H](CO)[C@@H](O)[C@H](N)[C@H]3O)[C@H](N)C[C@@H]2N)[C@H](N)C[C@@H]1O [TOBRAMYCIN] | 0.5 µg/mL (≈ 1.07 µM) | 1 µg/mL (≈ 2.14 µM) | 2 µg/mL (≈ 4.28 µM) | 8 µg/mL (≈ 17.1 µM) | 8 µg/mL (≈ 17.1 µM) | 256 µg/mL (≈ 548 µM) | ≤ 0.25 µg/mL | 1 µg/mL (≈ 2.14 µM) | 0.5 µg/mL (≈ 1.07 µM) | 1020 µg/mL (≈ 2190 µM) | 128 µg/mL (≈ 274 µM) | 128 µg/mL (≈ 274 µM) | 8 µg/mL (≈ 17.1 µM) | fractional inhibitory concentration index (FICI) [32]: 1.5; fractional inhibitory concentration index (FICI) [33]: 1.5; fractional inhibitory concentration index (FICI) [34]: <=1.5; fractional inhibitory concentration index (FICI) [35]: <=1; fractional inhibitory concentration index (FICI) [36]: 1.125; fractional inhibitory concentration index (FICI) [37]: 1.25; fractional inhibitory concentration index (FICI) [38]: 1 |
